# From patent publication US10807992B2, “Single enantiomer antiparasitic compounds” (priority 2017, dated 2020)
# Key:
# [1] = tested on: Ixodes scapularis; test: In vitro contact activity against adult ticks (coated vial), I. scapularis; details: for mortality at 0.006 µM: Trial 1, dose 0.006 μM; for mortality at 0.024 µM: Trial 1, dose 0.024 μM; for mortality at 0.098 µM: Trial 1, dose 0.098 μM; for mortality at 0.39 µM: Trial 1, dose 0.39 μM; for mortality at 1.56 µM: Trial 1, dose 1.56 μM; for mortality at 6.25 µM: Trial 1, dose 6.25 μM; for mortality at 25 µM: Trial 1, dose 25 μM; for mortality at 100 µM: Trial 1, dose 100 μM
# Protocol: (§1) Rhipicephalus sanguineus, Dermacentor variabilis, Amblyomma americanum, (Ecto Services, Inc., Henderson, N.C.) and Ixodes scapularis (Oklahoma State University, Stillwater, Okla.) aged between 2-4 weeks post molt were held in an environmental chamber at 24° C., 80% humidity with 12-hour light/dark cycles.
# (§2) For tick assays, vial caps were pre-drilled with a single hole in the center of each cap to allow air exchange. A filter paper (Whatman Grade 540 2.1 cm) was placed in the lid of each vial. An aliquot from each compound stock was added to an acetone/triton solution to achieve the desired top doses for the study. Serial dilutions were conducted from the top dose (i.e. 100 ppm) to achieve the desired titration range for EC50 and EC90 determination. For R. sanguineus, D. variabilis, and A. americanum, the final DMSO concentration in each test vial was 0.5%. For I. scapularis, compounds were solubilized directly in an acetone/triton solution due to I. scapularis' sensitivity to DMSO. A 459 μL aliquot of each compound formulation was transferred to a vial containing a Whatman Grade 540 2.1 cm filter paper. Vials were immediately placed on an unheated roller unit to allow for an even coating of the vial walls. After vials were coated, 41 μL of each compound formulation was added to the filter paper embedded in each vial cap. Each cap was allowed to dry. The vials were loosely capped and allowed to dry for a minimum of four hours in a chemical fume hood.
# (§3) Compounds tested were: the C1 racemate, C1 (R) enantiomer, and the C1 (S) enantiomer. For Trial 3, the C1 (R) enantiomer and the C1 (S) enantiomer were further chiral purified to achieve >99% purity.
# (§4) Ten adult ticks were added to each vial and held at 24° C., 80% humidity with 12-hour light/dark cycles. Adult ticks were assessed for percent mortality at various time points between 2 hours and 48 hours post infestation. Ticks were stimulated on a heated roller unit and evaluated. Ticks showing no movement, or very slow and uncoordinated movement were noted as dead.
# [2] = tested on: Rhipicephalus sanguineus; test: In vitro contact activity against adult ticks (coated vial), R. sanguineus; details: for mortality at 0.006 µM: Trial 3, dose 0.006 μM; for mortality at 0.024 µM: Trial 3, dose 0.024 μM; for mortality at 0.098 µM: Trial 3, dose 0.098 μM; for mortality at 0.39 µM: Trial 3, dose 0.39 μM; for mortality at 1.56 µM: Trial 3, dose 1.56 μM; for mortality at 6.25 µM: Trial 3, dose 6.25 μM; for mortality at 25 µM: Trial 3, dose 25 μM; for mortality at 100 µM: Trial 3, dose 100 μM
# Protocol: as §1, §2, §3, §4
structure (smiles),measurement,setting,value
"O=C(CC(F)(F)F)N1CC2(C1)OCc1cc(C3=NS[C@@](c4cc(Cl)c(F)c(Cl)c4)(C(F)(F)F)C3)ccc12 [C1 (S) enantiomer, (S)-1-[6-[5-(3,5-dichloro-4-fluoro-phenyl)-5-(trifluoromethyl)-4H-isothiazol-3-yl]spiro[1H-isobenzofuran-3,3′-azetidine]-1′-yl]-3,3,3-trifluoro-propan-1-one]",mortality at 0.006 µM,"[1]; 2 h, Rep1",0%
same,mortality at 0.006 µM,"[1]; 2 h, Rep2",0%
same,mortality at 0.024 µM,"[1]; 2 h, Rep1",0%
same,mortality at 0.024 µM,"[1]; 2 h, Rep2",0%
same,mortality at 0.098 µM,"[1]; 2 h, Rep1",0%
same,mortality at 0.098 µM,"[1]; 2 h, Rep2",0%
same,mortality at 0.39 µM,"[1]; 2 h, Rep1",0%
same,mortality at 0.39 µM,"[1]; 2 h, Rep2",0%
same,mortality at 1.56 µM,"[1]; 2 h, Rep1",0%
same,mortality at 1.56 µM,"[1]; 2 h, Rep2",0%
same,mortality at 6.25 µM,"[1]; 2 h, Rep1",0%
same,mortality at 6.25 µM,"[1]; 2 h, Rep2",0%
same,mortality at 25 µM,"[1]; 2 h, Rep1",0%
same,mortality at 25 µM,"[1]; 2 h, Rep2",0%
same,mortality at 100 µM,"[1]; 2 h, Rep1",0%
same,mortality at 100 µM,"[1]; 2 h, Rep2",0%
same,mortality at 0.006 µM,"[1]; 6 h, Rep1",0%
same,mortality at 0.006 µM,"[1]; 6 h, Rep2",0%
same,mortality at 0.024 µM,"[1]; 6 h, Rep1",0%
same,mortality at 0.024 µM,"[1]; 6 h, Rep2",0%
same,mortality at 0.098 µM,"[1]; 6 h, Rep1",0%
same,mortality at 0.098 µM,"[1]; 6 h, Rep2",0%
same,mortality at 0.39 µM,"[1]; 6 h, Rep1",0%
same,mortality at 0.39 µM,"[1]; 6 h, Rep2",0%
same,mortality at 1.56 µM,"[1]; 6 h, Rep1",0%
same,mortality at 1.56 µM,"[1]; 6 h, Rep2",0%
same,mortality at 6.25 µM,"[1]; 6 h, Rep1",0%
same,mortality at 6.25 µM,"[1]; 6 h, Rep2",0%
same,mortality at 25 µM,"[1]; 6 h, Rep1",40%
same,mortality at 25 µM,"[1]; 6 h, Rep2",40%
same,mortality at 100 µM,"[1]; 6 h, Rep1",100%
same,mortality at 100 µM,"[1]; 6 h, Rep2",100%
same,mortality at 0.006 µM,"[1]; 12 h, Rep1",0%
same,mortality at 0.006 µM,"[1]; 12 h, Rep2",0%
same,mortality at 0.024 µM,"[1]; 12 h, Rep1",0%
same,mortality at 0.024 µM,"[1]; 12 h, Rep2",0%
same,mortality at 0.098 µM,"[1]; 12 h, Rep1",0%
same,mortality at 0.098 µM,"[1]; 12 h, Rep2",0%
same,mortality at 0.39 µM,"[1]; 12 h, Rep1",0%
same,mortality at 0.39 µM,"[1]; 12 h, Rep2",0%
same,mortality at 1.56 µM,"[1]; 12 h, Rep1",0%
same,mortality at 1.56 µM,"[1]; 12 h, Rep2",0%
same,mortality at 6.25 µM,"[1]; 12 h, Rep1",40%
same,mortality at 6.25 µM,"[1]; 12 h, Rep2",50%
same,mortality at 25 µM,"[1]; 12 h, Rep1",100%
same,mortality at 25 µM,"[1]; 12 h, Rep2",90%
same,mortality at 100 µM,"[1]; 12 h, Rep1",100%
same,mortality at 100 µM,"[1]; 12 h, Rep2",100%
same,mortality at 0.006 µM,"[1]; 24 h, Rep1",0%
same,mortality at 0.006 µM,"[1]; 24 h, Rep2",0%
same,mortality at 0.024 µM,"[1]; 24 h, Rep1",0%
same,mortality at 0.024 µM,"[1]; 24 h, Rep2",0%
same,mortality at 0.098 µM,"[1]; 24 h, Rep1",0%
same,mortality at 0.098 µM,"[1]; 24 h, Rep2",0%
same,mortality at 0.39 µM,"[1]; 24 h, Rep1",0%
same,mortality at 0.39 µM,"[1]; 24 h, Rep2",0%
same,mortality at 1.56 µM,"[1]; 24 h, Rep1",50%
same,mortality at 1.56 µM,"[1]; 24 h, Rep2",60%
same,mortality at 6.25 µM,"[1]; 24 h, Rep1",100%
same,mortality at 6.25 µM,"[1]; 24 h, Rep2",90%
same,mortality at 25 µM,"[1]; 24 h, Rep1",100%
same,mortality at 25 µM,"[1]; 24 h, Rep2",100%
same,mortality at 100 µM,"[1]; 24 h, Rep1",100%
same,mortality at 100 µM,"[1]; 24 h, Rep2",100%
same,mortality at 0.006 µM,"[1]; 48 h, Rep1",0%
same,mortality at 0.006 µM,"[1]; 48 h, Rep2",10%
same,mortality at 0.024 µM,"[1]; 48 h, Rep1",0%
same,mortality at 0.024 µM,"[1]; 48 h, Rep2",0%
same,mortality at 0.098 µM,"[1]; 48 h, Rep1",10%
same,mortality at 0.098 µM,"[1]; 48 h, Rep2",10%
same,mortality at 0.39 µM,"[1]; 48 h, Rep1",40%
same,mortality at 0.39 µM,"[1]; 48 h, Rep2",40%
same,mortality at 1.56 µM,"[1]; 48 h, Rep1",90%
same,mortality at 1.56 µM,"[1]; 48 h, Rep2",100%
same,mortality at 6.25 µM,"[1]; 48 h, Rep1",100%
same,mortality at 6.25 µM,"[1]; 48 h, Rep2",100%
same,mortality at 25 µM,"[1]; 48 h, Rep1",100%
same,mortality at 25 µM,"[1]; 48 h, Rep2",100%
same,mortality at 100 µM,"[1]; 48 h, Rep1",100%
same,mortality at 100 µM,"[1]; 48 h, Rep2",100%
same,mortality at 0.006 µM,"[2]; 2 h, Rep1",0%
same,mortality at 0.006 µM,"[2]; 2 h, Rep2",0%
same,mortality at 0.024 µM,"[2]; 2 h, Rep1",0%
same,mortality at 0.024 µM,"[2]; 2 h, Rep2",0%
same,mortality at 0.098 µM,"[2]; 2 h, Rep1",0%
same,mortality at 0.098 µM,"[2]; 2 h, Rep2",0%
same,mortality at 0.39 µM,"[2]; 2 h, Rep1",0%
same,mortality at 0.39 µM,"[2]; 2 h, Rep2",0%
same,mortality at 1.56 µM,"[2]; 2 h, Rep1",0%
same,mortality at 1.56 µM,"[2]; 2 h, Rep2",0%
same,mortality at 6.25 µM,"[2]; 2 h, Rep1",0%
same,mortality at 6.25 µM,"[2]; 2 h, Rep2",0%
same,mortality at 25 µM,"[2]; 2 h, Rep1",0%
same,mortality at 25 µM,"[2]; 2 h, Rep2",0%
same,mortality at 100 µM,"[2]; 2 h, Rep1",50%
same,mortality at 100 µM,"[2]; 2 h, Rep2",10%
same,mortality at 0.006 µM,"[2]; 6 h, Rep1",0%
same,mortality at 0.006 µM,"[2]; 6 h, Rep2",0%
same,mortality at 0.024 µM,"[2]; 6 h, Rep1",0%
same,mortality at 0.024 µM,"[2]; 6 h, Rep2",0%
same,mortality at 0.098 µM,"[2]; 6 h, Rep1",0%
same,mortality at 0.098 µM,"[2]; 6 h, Rep2",0%
same,mortality at 0.39 µM,"[2]; 6 h, Rep1",0%
same,mortality at 0.39 µM,"[2]; 6 h, Rep2",0%
same,mortality at 1.56 µM,"[2]; 6 h, Rep1",10%
same,mortality at 1.56 µM,"[2]; 6 h, Rep2",0%
same,mortality at 6.25 µM,"[2]; 6 h, Rep1",80%
same,mortality at 6.25 µM,"[2]; 6 h, Rep2",60%
same,mortality at 25 µM,"[2]; 6 h, Rep1",90%
same,mortality at 25 µM,"[2]; 6 h, Rep2",100%
same,mortality at 100 µM,"[2]; 6 h, Rep1",100%
same,mortality at 100 µM,"[2]; 6 h, Rep2",100%
same,mortality at 0.006 µM,"[2]; 12 h, Rep1",0%
same,mortality at 0.006 µM,"[2]; 12 h, Rep2",0%
same,mortality at 0.024 µM,"[2]; 12 h, Rep1",0%
same,mortality at 0.024 µM,"[2]; 12 h, Rep2",0%
same,mortality at 0.098 µM,"[2]; 12 h, Rep1",0%
same,mortality at 0.098 µM,"[2]; 12 h, Rep2",0%
same,mortality at 0.39 µM,"[2]; 12 h, Rep1",10%
same,mortality at 0.39 µM,"[2]; 12 h, Rep2",10%
same,mortality at 1.56 µM,"[2]; 12 h, Rep1",40%
same,mortality at 1.56 µM,"[2]; 12 h, Rep2",50%
same,mortality at 6.25 µM,"[2]; 12 h, Rep1",100%
same,mortality at 6.25 µM,"[2]; 12 h, Rep2",100%
same,mortality at 25 µM,"[2]; 12 h, Rep1",100%
same,mortality at 25 µM,"[2]; 12 h, Rep2",100%
same,mortality at 100 µM,"[2]; 12 h, Rep1",100%
same,mortality at 100 µM,"[2]; 12 h, Rep2",100%
